According to US20240002369A1, “NOVEL TREATMENTS OF ATTENTION DEFICIT/HYPERACTIVITY DISORDER” (priority 2020, published 2024):
Entries after “also recorded” stand apart in the source; their conditions may differ. Structures can show the parent of a compound that is named as a salt. Marks after values point to notes of the source that are not given here.

What was measured:
Lphn3.1 HOM larvae [1] = assay: Sleep behavior in freely moving zebrafish larvae during lights-off period; settings: for comparison of all sleep parameters (summary): 1, 10, 30 μM, FIG. 6A-6D
Method: This assay provides a measure of muscle weakness and/or motor coordination, which co-occurs with certain sleep states, but can also occur independently of sleep. […] Thus, to evaluate the effect of moxonidine on sleep behavior, the sleep behavior in freely moving zebrafish (Lphn3.1 HOM larvae) following treatment with moxonidine, a comparator compound, or negative control (i.e. saline or vehicle control) was assessed in line with the criteria described by Levitas-Djerbi et al., (Curr Opin Neurobiol. 2017; 44:89-93) and Sorribes et al., (Front Neural Circuits. 2013 Nov. 13; 7:178).
In brief, sleep behavior was recorded in a 96-well plate and analysed during the lights-off period (22:00-08:00). First, all behavior was dichotomized into 1-s bins of movement or non-movement. […] All activity that was slower than that threshold was computed as non-movement. Thus, rendering a dichotomized record of the behavior in either movement or non-movement. Next, the dichotomized record was transformed into bins of sleep and wake. Following previously established sleep criteria in adults, and adapted to larval fish (Yokogawa et al., PLoS Biol. 2007; 5(10):2379-97, Sorribes et al., Front Neural Circuits. 2013; 7:178, and Sigurgeirsson et al., Behav Brain Res. 2013; 256:377-90), six or more consecutive 1-s bins of non-movement were counted as sleep and all else was counted as wake. That is, the seventh second and above were classified as sleep; all other bouts were classified as wake. Once the number of sleep and wake bouts was calculated, five different sleep parameters were assessed (i.e. sleep fragmentation, sleep ratio, velocity during sleep, wake bout duration(s), and sleep bout duration(s)). Sleep fragmentation was defined as the number of transitions between sleep and wake bouts per hour. Sleep ratio was calculated as the percentage of total night time that the fish was considered asleep. Velocity during sleep (mm/s) was defined as the average velocity throughout the night time. Wake bout duration(s) was defined as the average length of wake bouts. Sleep bout duration(s) was defined as the average length of sleep bouts.

[2] = system: scopolamine-induced cognitive dysfunction; assay: T-maze alternation test, scopolamine-induced cognitive dysfunction model; format: in vivo, Male CD-1 mice
Description: Male CD-1 mice aged 4-5 weeks were allocated to a T-maze to perform the T-maze alternation test as described by Andriambeloson et al., 2014 (Pharma Res Per, 2 (4), 2014, e00048, included herein by reference). In brief, each mouse was placed in a T-maze consisting of a main stem and two arms. The experiment consisted of one “forced-choice” trial and 14 “free-choice” trials to evaluate the number of spontaneous alternations.

Lphn3.1 WT larvae = assay: Motor assay in wild-type zebrafish larvae; format: in vivo, zebrafish (Danio rerio)
Lphn3.1 HOM larvae [3] = assay: Motor assay in the zebrafish model of ADHD (Lphn3.1 knock-out larvae); format: in vivo, zebrafish (Danio rerio)
Description: Zebrafish larvae carrying a knock-out of the Latrophilin3 (Lphn3.1) gene were generated by CRISPR-Cas9. Zebrafish were kept in a 14:10 light: dark cycle in 3 or 10 L multi tank constant flow system (Aquatic Habitats, Apopka, FL, USA). For behavioral analysis a total number of 881, 6 days-post fertilization (dpf) embryos carrying a homozygous knock-out of the Lphn3.1 gene were used in the study. Adult zebrafish with a homozygous knock-out of the Lphn3.1 gene and adult zebrafish with a wild-type Lphn3.1 gene were fed three times a day on a variable diet of TetraMin flakes (Tetra Holding GmbH, Melle, Germany) and live Artemia. […]
Following a 24 hour acclimation period, behavioral recordings were made. Locomotor activity was recorded between […] and 6.00 pm at 6 dpf during alternating light and dark conditions, presented in 30-minute intervals. For this period, average distance moved (mm) by the larvae was calculated as the mean of the total distance swum during five separate 30-minute intervals immediately after transition of light conditions. […]
Data was obtained using EthoVision XT (Version Nov. 5, 2016, Noldus) and exported to Microsoft Excel for analysis. […] For analysis of Lphn 3.1 larvae treated with moxonidine statistical differences were evaluated using one-way ANOVA with Dunnett two-sided post hoc analysis. […]

[4] = Tan et al., Proc Natl Acad Sci USA 2002; cited from earlier work
[5] = Lphn3.1 HOM, zebrafish, in vivo, 10 h, 1 uM
[6] = Lphn3.1 HOM, zebrafish, in vivo, 10 h, 10 uM
[7] = Lphn3.1 HOM, zebrafish, in vivo, 10 h, 30 uM
[8] = 1 uM vs HOM - DMSO, average length of sleep bouts
[9] = 1 uM vs HOM - DMSO, average length of wake bouts
[10] = 1 uM vs HOM - DMSO, average velocity throughout the night time
[11] = 1 uM vs HOM - DMSO, share of total night time asleep
[12] = 1 uM vs HOM - DMSO, transitions between sleep and wake bouts per hour, lights-off 22:00-08:00
[13] = 10 uM vs HOM - DMSO, average length of sleep bouts
[14] = 10 uM vs HOM - DMSO, average length of wake bouts
[15] = 10 uM vs HOM - DMSO, average velocity throughout the night time
[16] = 10 uM vs HOM - DMSO, share of total night time asleep
[17] = 10 uM vs HOM - DMSO, transitions between sleep and wake bouts per hour, lights-off 22:00-08:00
[18] = 30 uM vs HOM - DMSO, average length of sleep bouts
[19] = 30 uM vs HOM - DMSO, average length of wake bouts
[20] = 30 uM vs HOM - DMSO, average velocity throughout the night time
[21] = 30 uM vs HOM - DMSO, share of total night time asleep
[22] = 30 uM vs HOM - DMSO, transitions between sleep and wake bouts per hour, lights-off 22:00-08:00

Compound	SleepDuration (sleep bout duration) Mean Difference (I − J) (Lphn3.1 HOM larvae [1]; [8])	WakeDuration (wake bout duration) Mean Difference (I − J) (Lphn3.1 HOM larvae [1]; [9])	Velocity (during sleep) Mean Difference (I − J) (Lphn3.1 HOM larvae [1]; [10])	SleepRatio Mean Difference (I − J) (Lphn3.1 HOM larvae [1]; [11])	SleepFragmentation Mean Difference (I − J) (Lphn3.1 HOM larvae [1]; [12])	SleepDuration (sleep bout duration) Mean Difference (I − J) (Lphn3.1 HOM larvae [1]; [13])	WakeDuration (wake bout duration) Mean Difference (I − J) (Lphn3.1 HOM larvae [1]; [14])	Velocity (during sleep) Mean Difference (I − J) (Lphn3.1 HOM larvae [1]; [15])	SleepRatio Mean Difference (I − J) (Lphn3.1 HOM larvae [1]; [16])	SleepFragmentation Mean Difference (I − J) (Lphn3.1 HOM larvae [1]; [17])	SleepDuration (sleep bout duration) Mean Difference (I − J) (Lphn3.1 HOM larvae [1]; [18])	WakeDuration (wake bout duration) Mean Difference (I − J) (Lphn3.1 HOM larvae [1]; [19])	Velocity (during sleep) Mean Difference (I − J) (Lphn3.1 HOM larvae [1]; [20])	SleepRatio Mean Difference (I − J) (Lphn3.1 HOM larvae [1]; [21])	SleepFragmentation Mean Difference (I − J) (Lphn3.1 HOM larvae [1]; [22])	comparison of all sleep parameters (summary) (Lphn3.1 HOM larvae [1])	velocity in wild-type larvae (Lphn3.1 WT larvae)	other results
N=C(N)NC(=O)Cc1c(Cl)cccc1Cl [Guanfacine, guanfacine]	–	–	–	–	–	–	–	–	–	–	–	–	–	–	–	–	–	SleepDuration (sleep bout duration) Mean Difference (I − J) (Lphn3.1 HOM larvae [1]; [5]): 3.64* s; SleepFragmentation Mean Difference (I − J) (Lphn3.1 HOM larvae [1]; [5]): −1.812; SleepRatio Mean Difference (I − J) (Lphn3.1 HOM larvae [1]; [5]): .12336*; Velocity (during sleep) Mean Difference (I − J) (Lphn3.1 HOM larvae [1]; [5]): −.08559* mm/s; WakeDuration (wake bout duration) Mean Difference (I − J) (Lphn3.1 HOM larvae [1]; [5]): −3.163* s; SleepDuration (sleep bout duration) Mean Difference (I − J) (Lphn3.1 HOM larvae [1]; [6]): 1.224 s; SleepFragmentation Mean Difference (I − J) (Lphn3.1 HOM larvae [1]; [6]): 7.4424; SleepRatio Mean Difference (I − J) (Lphn3.1 HOM larvae [1]; [6]): .06927*; Velocity (during sleep) Mean Difference (I − J) (Lphn3.1 HOM larvae [1]; [6]): −.07521* mm/s; WakeDuration (wake bout duration) Mean Difference (I − J) (Lphn3.1 HOM larvae [1]; [6]): −2.542* s; SleepDuration (sleep bout duration) Mean Difference (I − J) (Lphn3.1 HOM larvae [1]; [7]): 2.369* s; SleepFragmentation Mean Difference (I − J) (Lphn3.1 HOM larvae [1]; [7]): 1.559; SleepRatio Mean Difference (I − J) (Lphn3.1 HOM larvae [1]; [7]): .09806*; Velocity (during sleep) Mean Difference (I − J) (Lphn3.1 HOM larvae [1]; [7]): −.08512* mm/s; WakeDuration (wake bout duration) Mean Difference (I − J) (Lphn3.1 HOM larvae [1]; [7]): −2.735* s
Clc1cccc(Cl)c1N=C1NCCN1 [Clonidine, clonidine]	−4.177* s	2.095* s	.08382* mm/s	−.12630*	11.79*	−4.388* s	2.1* s	.09470* mm/s	−.13226*	12.98*	−6.197* s	8.132* s	.23026* mm/s	−.24115*	−7.699	drastically altered all sleep parameters at the majority of doses tested	–	–
CNCC[C@@H](Oc1ccccc1C)c1ccccc1 [atomoxetine, atomoxetine hydrochloride]	8.266* s	−2.547* s	−.09320* mm/s	.18730*	−23.58*	6.306* s	-1.806 s	−.03944* mm/s	.15382*	−19.14*	9.808* s	−3.112* s	−.10640* mm/s	.22326*	−26.47*	drastically altered all sleep parameters at the majority of doses tested	increase velocity	spontaneous alternations, rescue of scopolamine effect ([2]; vs scopolamine-exposed mice, p<0.0001, FIG. 4): rescued
COc1nc(C)nc(Cl)c1NC1=NCCN1 [Moxonidine, moxonidine]	-1.586 s	0.8031 s	−0.02492 mm/s	−0.04916	3.2294	-1.0974 s	-0.00334 s	−.07640* mm/s	−0.02153	5.727	-1.57 s	3.687 s	−.05041* mm/s	−0.06247	−1.7339	only a slight increase in velocity	increase velocity	spontaneous alternation, dose dependence ([2]; 0.1 mg/kg, 0.3 mg/kg and 1 mg/kg, FIG. 4): dose-dependent increase in spontaneous alternation; spontaneous alternation ([2]; 0.3 mg/kg vs mice exposed to scopolamine, p<0.001): significant increased spontaneous alternation; spontaneous alternation ([2]; 1 mg/kg vs mice exposed to scopolamine, p<0.0001): significant increased spontaneous alternation; average distance moved over the five lights-on phases (Lphn3.1 HOM larvae [3]; 1 μM, 10 μM or 30 μM vs vehicle control (DMSO), FIG. 3): differed significantly from vehicle control and untreated larvae; also recorded: Statistically significant differences; behavioral deficits (24 hour velocity spectrogram) (Lphn3.1 HOM larvae [3]; 10 μM, Lphn3.1 HOM larvae, FIG. 5): rectifies the behavioral deficits; behavioral parameters (24 hour velocity spectrogram) (Lphn3.1 WT larvae; 10 μM, FIG. 5): no effect on behavioral parameters; sedation in the rotarod assay [4]: less sedation compared to clonidine and brimonidine
